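Tested at 5 concentrations; 48 h exposure; 96-well plates; endpoints linearly interpolated, else capped at highest concentration. GI50: concentration for 50% inhibition of growth. TGI marks complete inhibition of growth.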
Legend:
Assay in all cases: inhibition of tumour cell growth, NCI panel, 48 h
A498 renal = tested on: A498 renal
A549 NSCLC = tested on: A549 NSCLC
ACHN renal = tested on: ACHN renal
BT-549 breast = tested on: BT-549 breast
CAKI-1 renal = tested on: CAKI-1 renal
CCRF-CEM leukemia = tested on: CCRF-CEM leukemia
COLO 205 colon = tested on: COLO 205 colon
DU-145 prostate = tested on: DU-145 prostate
EKVX NSCLC = tested on: EKVX NSCLC
HCC-2998 colon = tested on: HCC-2998 colon
HCT-116 colon = tested on: HCT-116 colon
HCT-15 colon = tested on: HCT-15 colon
HL-60(TB) leukemia = tested on: HL-60(TB) leukemia
HOP-62 NSCLC = tested on: HOP-62 NSCLC
HOP-92 NSCLC = tested on: HOP-92 NSCLC
HS 578T breast = tested on: HS 578T breast
HT29 colon = tested on: HT29 colon
IGROV1 ovarian = tested on: IGROV1 ovarian
K-562 leukemia = tested on: K-562 leukemia
KM12 colon = tested on: KM12 colon
LOX IMVI melanoma = tested on: LOX IMVI melanoma
M14 melanoma = tested on: M14 melanoma
MALME-3M melanoma = tested on: MALME-3M melanoma
MCF7 breast = tested on: MCF7 breast
MDA-MB-231 breast = tested on: MDA-MB-231 breast
MDA-MB-435 = tested on: MDA-MB-435
MOLT-4 leukemia = tested on: MOLT-4 leukemia
NCI-H226 lung = tested on: NCI-H226 lung
NCI-H23 lung = tested on: NCI-H23 lung
NCI-H460 lung = tested on: NCI-H460 lung
NCI-H522 lung = tested on: NCI-H522 lung
NCI/ADR-RES ovarian = tested on: NCI/ADR-RES ovarian
OVCAR-3 ovarian = tested on: OVCAR-3 ovarian
OVCAR-4 ovarian = tested on: OVCAR-4 ovarian
OVCAR-5 ovarian = tested on: OVCAR-5 ovarian
OVCAR-8 ovarian = tested on: OVCAR-8 ovarian
PC-3 prostate = tested on: PC-3 prostate
RPMI-8226 leukemia = tested on: RPMI-8226 leukemia
RXF 393 renal = tested on: RXF 393 renal
SF-268 CNS = tested on: SF-268 CNS
SF-295 CNS = tested on: SF-295 CNS
SF-539 CNS = tested on: SF-539 CNS
SK-MEL-2 melanoma = tested on: SK-MEL-2 melanoma
SK-MEL-28 melanoma = tested on: SK-MEL-28 melanoma
SK-MEL-5 melanoma = tested on: SK-MEL-5 melanoma
SK-OV-3 ovarian = tested on: SK-OV-3 ovarian
SN12C renal = tested on: SN12C renal
SNB-75 CNS = tested on: SNB-75 CNS
SR leukemia = tested on: SR leukemia
SW-620 colon = tested on: SW-620 colon
T-47D breast = tested on: T-47D breast
TK-10 renal = tested on: TK-10 renal
U251 CNS = tested on: U251 CNS
UACC-257 melanoma = tested on: UACC-257 melanoma
UACC-62 melanoma = tested on: UACC-62 melanoma
UO-31 renal = tested on: UO-31 renal

For `CCCCN1CCN(c2ccc3nc(-c4ccc5nc(-c6ccc(OC)c(OC)c6)[nH]c5c4)[nH]c3c2)CC1`, the GI50 (A498 renal) was 894 nM, the TGI (A498 renal) was 2360 nM and the GI50 (A549 NSCLC) was 1170 nM. It also gave a TGI (A549 NSCLC) of 3320 nM, a GI50 (ACHN renal) of 2270 nM and a TGI (ACHN renal) of 12400 nM. For the same molecule, the GI50 (BT-549 breast) was 1270 nM, the TGI (BT-549 breast) was 2690 nM and the GI50 (CAKI-1 renal) was 490 nM. It also gave a TGI (CAKI-1 renal) of 3980 nM, a GI50 (CCRF-CEM leukemia) of 434 nM and a TGI (CCRF-CEM leukemia) of 2050 nM. The GI50 (COLO 205 colon) was 173 nM, the TGI (COLO 205 colon) was 1360 nM and the GI50 (DU-145 prostate) was 754 nM. For the same molecule, the TGI (DU-145 prostate) was 4040 nM, the GI50 (EKVX NSCLC) was 2140 nM and the TGI (EKVX NSCLC) was > 100000 nM. It also gave a GI50 (HCC-2998 colon) of 1040 nM, a TGI (HCC-2998 colon) of 2400 nM and a GI50 (HCT-116 colon) of 285 nM. The TGI (HCT-116 colon) was 1450 nM, the GI50 (HCT-15 colon) was 3290 nM and the TGI (HCT-15 colon) was 30000 nM. For the same molecule, the GI50 (HL-60(TB) leukemia) was 646 nM, the TGI (HL-60(TB) leukemia) was 2950 nM and the GI50 (HOP-62 NSCLC) was 1060 nM. The TGI (HOP-62 NSCLC) was 5070 nM, the GI50 (HOP-92 NSCLC) was 1520 nM and the TGI (HOP-92 NSCLC) was 6640 nM. It also gave a GI50 (HS 578T breast) of 1300 nM, a TGI (HS 578T breast) of 4310 nM and a GI50 (HT29 colon) of 389 nM. The TGI (HT29 colon) was 1980 nM, the GI50 (IGROV1 ovarian) was 1290 nM and the TGI (IGROV1 ovarian) was 3390 nM. The GI50 (K-562 leukemia) was 280 nM, the TGI (K-562 leukemia) was 1890 nM and the GI50 (KM12 colon) was 1370 nM. The TGI (KM12 colon) was 3130 nM, the GI50 (LOX IMVI melanoma) was 366 nM and the TGI (LOX IMVI melanoma) was 1310 nM. It also gave a GI50 (M14 melanoma) of 213 nM, a TGI (M14 melanoma) of 1520 nM and a GI50 (MALME-3M melanoma) of 73.4 nM. The TGI (MALME-3M melanoma) was 1270 nM, the GI50 (MCF7 breast) was 196 nM and the TGI (MCF7 breast) was 1560 nM. It also gave a GI50 (MDA-MB-231 breast) of 1540 nM, a TGI (MDA-MB-231 breast) of 3100 nM and a GI50 (MDA-MB-435) of 599 nM. For the same molecule, the TGI (MDA-MB-435) was 2000 nM, the GI50 (MOLT-4 leukemia) was 903 nM and the TGI (MOLT-4 leukemia) was 3840 nM. It also gave a GI50 (NCI-H226 lung) of 1340 nM, a TGI (NCI-H226 lung) of 2970 nM and a GI50 (NCI-H23 lung) of 617 nM. It also gave a TGI (NCI-H23 lung) of 2030 nM, a GI50 (NCI-H460 lung) of 616 nM and a TGI (NCI-H460 lung) of 1550 nM. For the same molecule, the GI50 (NCI-H522 lung) was 258 nM, the TGI (NCI-H522 lung) was 1520 nM and the GI50 (NCI/ADR-RES ovarian) was > 100000 nM. For the same molecule, the TGI (NCI/ADR-RES ovarian) was > 100000 nM, the GI50 (OVCAR-3 ovarian) was 428 nM and the TGI (OVCAR-3 ovarian) was 1950 nM. It also gave a GI50 (OVCAR-4 ovarian) of 334 nM, a TGI (OVCAR-4 ovarian) of 1880 nM and a GI50 (OVCAR-5 ovarian) of 2320 nM. The TGI (OVCAR-5 ovarian) was 6090 nM, the GI50 (OVCAR-8 ovarian) was 435 nM and the TGI (OVCAR-8 ovarian) was 2170 nM. The GI50 (PC-3 prostate) was 1160 nM, the TGI (PC-3 prostate) was 3290 nM and the GI50 (RPMI-8226 leukemia) was 458 nM. For the same molecule, the TGI (RPMI-8226 leukemia) was 2120 nM, the GI50 (RXF 393 renal) was 917 nM and the TGI (RXF 393 renal) was 2150 nM. For the same molecule, the GI50 (SF-268 CNS) was 1350 nM, the TGI (SF-268 CNS) was 6640 nM and the GI50 (SF-295 CNS) was 647 nM. The TGI (SF-295 CNS) was 3540 nM, the GI50 (SF-539 CNS) was 1220 nM and the TGI (SF-539 CNS) was 2630 nM. For the same molecule, the GI50 (SK-MEL-2 melanoma) was 1320 nM, the TGI (SK-MEL-2 melanoma) was 2770 nM and the GI50 (SK-MEL-28 melanoma) was 857 nM. For the same molecule, the TGI (SK-MEL-28 melanoma) was 2240 nM, the GI50 (SK-MEL-5 melanoma) was 599 nM and the TGI (SK-MEL-5 melanoma) was 2130 nM. The GI50 (SK-OV-3 ovarian) was 1430 nM, the TGI (SK-OV-3 ovarian) was 6340 nM and the GI50 (SN12C renal) was 738 nM. It also gave a TGI (SN12C renal) of 3660 nM, a GI50 (SNB-75 CNS) of 180 nM and a TGI (SNB-75 CNS) of 3840 nM. The GI50 (SR leukemia) was 308 nM, the TGI (SR leukemia) was 1380 nM and the GI50 (SW-620 colon) was 306 nM. It also gave a TGI (SW-620 colon) of 1760 nM, a GI50 (T-47D breast) of 399 nM and a TGI (T-47D breast) of 2850 nM. The GI50 (TK-10 renal) was 1120 nM, the TGI (TK-10 renal) was 3440 nM and the GI50 (U251 CNS) was 1050 nM. It also gave a TGI (U251 CNS) of 2260 nM, a GI50 (UACC-257 melanoma) of 537 nM and a TGI (UACC-257 melanoma) of 2390 nM. It also gave a GI50 (UACC-62 melanoma) of 431 nM, a TGI (UACC-62 melanoma) of 1940 nM and a GI50 (UO-31 renal) of 8040 nM. For the same molecule, the TGI (UO-31 renal) was > 39900 nM.
